Measurements as given in patent EP0428103A2, “Prevention of glycoprotein enveloped virus infectivity by pyridyloxazole-2-ones” (MERRELL DOW PHARMACEUTICALS INC., priority 1989, dated 1991).
Where a name gives a salt, the structure may show the parent alone.

Key:
HIV = conditions: CD4+ cells, Fields, et al., Nature, Vol. 333, 19 May 1988, cited from earlier work
RF strain of HIV-1 = assay: p24 antigen expression from HIV infected T-lymphocytes; format: cell-based; conditions: C8166 T cell line; for p24 Antigen: culture fluid after 3 days
Protocol: Cells (C8166 T cell line) were pretreated with test compounds at appropriate concentrations for 3 hours prior to virus (RF strain of HIV-1) absorption. Low multiplicity of infection was used and virus absorption period was 1 hour at room temperature. the cells were washed X1 in PBS and resuspended in fresh medium containing the appropriate concentrations of test compound. Cells incubated at 37°C and after 3 days culture fluid was assayed for p24 antigen as a measure of viral replication. Because these compounds were tested as the free base, they had to be taken up in DMSO and therefore a series of DMSO virus controls were needed for comparison.

[1] = system: Moloney murine leukemia virus (MoLV); assay: in vitro XC plaque assay; format: cell-based; conditions: mouse SC-1 cells; for Mean No. of Foci: control 84 foci
Protocol: This assay was performed according to the method of Rowe et al. (Virology, 1970, 42, 1136-39) as previously described by L. Hsu, et al. (J. Virological Methods, 1980, 1, 167-77) and T. L. Bowlin and M. R. Proffitt (J. Interferon Res., 1983, 3(1), 19-31). Mouse SC-1 cells (fibroblast) (10⁵) were seeded into each well of 6-well cluster plates (Costar #3506) in 4 ml Minimum Essential Medium (MEM) with 10% Fetal Calf Serum (FCS). Following an 18 hour incubation period (37°C), Moloney murine leukemia virus (MoLV) was applied at a predetermined titer to give optimal (i.e. countable) numbers of virus plaques. Compounds were added 2 hours prior to addition of the virus. Three days later the culture medium was removed, the SC-1 cell monolayers were exposed to UV irradiation (1800 ergs), and rat XC cells (10⁶) were seeded into each well in 4 ml MEM. Following an additional 3 day incubation (37°C), these cells were fixed with ethyl alcohol (95%) and stained with 0.3% crystal violet. Plaques were then counted under low magnification.

For CC1CNCCN1S(=O)(=O)c1cccc2cnccc12 (stereo not shown) [1,5-isoquinolinesulphonyl-2-methylpiperazine dihydrochloride], which “HIV cell surface binding” value (HIV) is on record?
The value was “does not interfere”.

What about the viral infectivity (HIV; accumulation of virus particles at the cell surface) of the same molecule?
The viral infectivity was “inhibition of viral infectivity”.

With CCCc1[nH]c(=O)oc1-c1ccncc1 [Test Compound, 4-propyl-5-(4-pyridinyl)-2(3H)-oxazolone] as the molecule, how does the “p24 Antigen” value (RF strain of HIV-1; 1 µg/ml, DMSO 0.01 %, vehicle control 1027 pg/ml) read?
Its value is 613 pg/mL.

What about the “p24 Antigen” value (RF strain of HIV-1; 10 µg/ml, DMSO 0.1 %, vehicle control 2408 pg/ml) of the same molecule?
Its value is 244 pg/mL.

What about the inhibition at 1 µg/mL (RF strain of HIV-1; Human immunodeficiency virus 1, 72 h, 1 µg/ml, DMSO 0.01 %, 3 days) of the same molecule?
Its inhibition at 1 µg/mL is 41%.

What about the inhibition at 10 µg/mL (RF strain of HIV-1; Human immunodeficiency virus 1, 72 h, 10 µg/ml, DMSO 0.1 %, 3 days) of the same molecule?
Its inhibition at 10 µg/mL is 90%.

What about the “Mean No. of Foci” value ([1]; 0.10 µg/ml) of the same molecule?
The value was 85.

And the “Mean No. of Foci” value ([1]; 0.25 µg/ml)?
Its value is 67.

What about the “Mean No. of Foci” value ([1]; 0.5 µg/ml) of the same molecule?
Its value is 68.

And the “Mean No. of Foci” value ([1]; 0.75 µg/ml)?
Its value is 63.

What about the “Mean No. of Foci” value ([1]; 1 µg/ml, compound added 2 hours prior to virus) of the same molecule?
The value was 33.

And the inhibition at 0.1 µg/mL ([1]; Murine leukemia virus, SC1, 0.10 µg/ml)?
Its inhibition at 0.1 µg/mL is 0%.

And the inhibition at 0.25 µg/mL ([1]; Murine leukemia virus, SC1, 0.25 µg/ml)?
Its inhibition at 0.25 µg/mL is 20%.

What about the inhibition at 0.5 µg/mL ([1]; Murine leukemia virus, SC1, 0.5 µg/ml) of the same molecule?
The inhibition at 0.5 µg/mL was 19%.

What about the inhibition at 0.75 µg/mL ([1]; Murine leukemia virus, SC1, 0.75 µg/ml) of the same molecule?
Its inhibition at 0.75 µg/mL is 25%.

And the inhibition at 1 µg/mL ([1]; Murine leukemia virus, SC1, 1 µg/ml, compound added 2 hours prior to virus)?
Its inhibition at 1 µg/mL is 60.7%.
